Results from US9409884B2 (Rigel Pharmaceuticals, Inc., priority 2012, dated 2016).

Biological target: AMPK
Test: AMPK activation, enzyme-linked immunosorbent assay
Type: biochemical
Details: Table 8, compounds of Table 1
Summary of the method: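 Read-out: ELISA, used to detect compound-driven activation of AMPK.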

Row | SMILES | EC50 [nM]
1 | O=C(NC1CCN(S(=O)(=O)c2cccnc2)CC1)c1cc2ccc(OC3CCN(c4ccc(C(F)(F)F)cc4)CC3)cc2o1 [Compound 1-106, N-(1-(pyridin-3-ylsulfonyl)piperidin-4-yl)-6-(1-(4-(trifluoromethyl)phenyl)piperidin-4-yloxy)benzofuran-2-carboxamide] | 100 to 500
2 | CN(C(=O)c1cc2cc(OC3CCN(c4ccc(C(F)(F)F)cc4)CC3)ccc2o1)C1CCN(Cc2ccc(C#N)cc2)CC1 [Compound 1-107, N-(1-(4-cyanobenzyl)piperidin-4-yl)-N-methyl-5-(1-(4-(trifluoromethyl)phenyl)piperidin-4-yloxy)benzofuran-2-carboxamide] | < 100
3 | O=C(NC1CCN(S(=O)(=O)c2cccnc2)CC1)c1cc2ccc(OC3CCN(c4ccc(OC(F)(F)F)cc4)CC3)cc2o1 [Compound 1-108, N-(1-(pyridin-3-ylsulfonyl)piperidin-4-yl)-6-(1-(4-(trifluoromethoxy)phenyl)piperidin-4-yloxy)benzofuran-2-carboxamide] | 100 to 500
4 | CN(C(=O)c1cc2cc(OC3CCN(c4ccc(C(F)(F)F)cc4)CC3)ccc2o1)C1CCN(Cc2cccnc2)CC1 [Compound 1-109, N-methyl-N-(1-(pyridin-3-ylmethyl)piperidin-4-yl)-5-(1-(4-(trifluoromethyl)phenyl)piperidin-4-yloxy)benzofuran-2-carboxamide] | < 100
5 | CN(C(=O)c1cc2cc(OC3CCN(c4ccc(C(F)(F)F)cc4)CC3)ccc2o1)C1CCN(Cc2cccc(C#N)c2)CC1 [Compound 1-110, N-(1-(3-cyanobenzyl)piperidin-4-yl)-N-methyl-5-(1-(4-(trifluoromethyl)phenyl)piperidin-4-yloxy)benzofuran-2-carboxamide] | < 100
6 | CN(C(=O)c1cc2cc(OC3CCN(c4ccc(C(F)(F)F)cc4)CC3)ccc2o1)C1CCN(Cc2ccccc2C#N)CC1 [Compound 1-111, N-(1-(2-cyanobenzyl)piperidin-4-yl)-N-methyl-5-(1-(4-(trifluoromethyl)phenyl)piperidin-4-yloxy)benzofuran-2-carboxamide] | 100 to 500
7 | O=C(NC1CCN(C(=O)c2ccncc2)CC1)c1cc2ccc(OC3CCN(c4ccc(C(F)(F)F)cc4)CC3)cc2o1 [Compound 1-112, N-(1-isonicotinoylpiperidin-4-yl)-6-(1-(4-(trifluoromethyl)phenyl)piperidin-4-yloxy)benzofuran-2-carboxamide] | < 100
8 | CC(C)(C)OC(=O)N1CCC(NC(=O)c2cc3cc(OC4CCN(Cc5ccc(C#N)cc5)CC4)ccc3o2)CC1 [Compound 1-113, tert-butyl 4-(5-(1-(4-cyanobenzyl)piperidin-4-yloxy)benzofuran-2-carboxamido) piperidine-1-carboxylate] | 100 to 500
9 | N#Cc1ccc(CN2CCC(Oc3ccc4oc(C(=O)NC5CCN(Cc6ccccc6)CC5)cc4c3)CC2)cc1 [Compound 1-114, N-(1-benzylpiperidin-4-yl)-5-(1-(4-cyanobenzyl)piperidin-4-yloxy)benzofuran-2-carboxamide] | 100 to 500
10 | O=C(NC1CCN(C(=O)c2ccncc2)CC1)c1cc2cc(OC3CCN(c4ccc(C(F)(F)F)cc4)CC3)ccc2o1 [Compound 1-115, N-(1-isonicotinoylpiperidin-4-yl)-5-(1-(4-(trifluoromethyl)phenyl)piperidin-4-yloxy)benzofuran-2-carboxamide] | < 100
11 | NC(=O)c1ccc(CN2CCC(Oc3ccc4oc(C(=O)NC5CCN(Cc6ccccc6)CC5)cc4c3)CC2)cc1 [Compound 1-116, N-(1-benzylpiperidin-4-yl)-5-(1-(4-carbamoylbenzyl)piperidin-4-yloxy)benzofuran-2-carboxamide] | 100 to 500
12 | CN(C(=O)c1cc2cc(OC3CCN(c4ccc(C(F)(F)F)cc4)CC3)ccc2o1)C1CCN(Cc2ccccn2)CC1 [Compound 1-117, N-methyl-N-(1-(pyridin-2-ylmethyl)piperidin-4-yl)-5-(1-(4-(trifluoromethyl)phenyl)piperidin-4-yloxy)benzofuran-2-carboxamide] | < 100
